Results published in PubChem BioAssay AID1259407 (Chemical Carcinogenesis Research Information System (CCRIS), 2018).
The source made the active and inactive calls. The rule behind the calls is not given here.

Test system: CCRIS mutagenicity, Ames/micronucleus/aberration tests
Test: CCRIS mutagenicity studies
[1] = Test System: AMES SALMONELLA TYPHIMURIUM, Strain/Indicator: TA98, Metabolic Activation: NONE, Method: STANDARD PLATE
[2] = Test System: AMES SALMONELLA TYPHIMURIUM, Strain/Indicator: TA98, Metabolic Activation: RAT, LIVER, S-9, AROCLOR 1254, Method: STANDARD PLATE
[3] = Test System: AMES SALMONELLA TYPHIMURIUM, Strain/Indicator: TA98, Metabolic Activation: NONE, Method: PREINCUBATION
[4] = Test System: AMES SALMONELLA TYPHIMURIUM, Strain/Indicator: TA100, Metabolic Activation: NONE, Method: PREINCUBATION
[5] = Test System: AMES SALMONELLA TYPHIMURIUM, Strain/Indicator: TA100, Metabolic Activation: NONE, Method: STANDARD PLATE
[6] = Test System: AMES SALMONELLA TYPHIMURIUM, Strain/Indicator: TA100, Metabolic Activation: RAT, LIVER, S-9, AROCLOR 1254, Method: STANDARD PLATE

Q: With CC(=O)N(O)c1ccc2ccc3cccc4ccc1c2c34 as the compound, how does the mutagenic call (Test System: AMES SALMONELLA TYPHIMURIUM, Strain/Indicator: TA98(1,8-DNP6), Metabolic Activation: NONE, Method: STANDARD PLATE) read?
A: Its mutagenic call is “active; positive”.

Q: And the mutagenic call (Test System: AMES SALMONELLA TYPHIMURIUM, Strain/Indicator: TA98(1,8-DNP6), Metabolic Activation: RAT, LIVER, S-9, AROCLOR 1254, Method: STANDARD PLATE)?
A: Its mutagenic call is “active; positive”.

Q: What about the mutagenic call (Test System: AMES SALMONELLA TYPHIMURIUM, Strain/Indicator: TA98(NR), Metabolic Activation: NONE, Method: STANDARD PLATE) of the same compound?
A: The mutagenic call was “active; positive”.

Q: What about the mutagenic call (Test System: AMES SALMONELLA TYPHIMURIUM, Strain/Indicator: TA98(NR), Metabolic Activation: RAT, LIVER, S-9, AROCLOR 1254, Method: STANDARD PLATE) of the same compound?
A: The mutagenic call was “active; positive”.

Q: What about the mutagenic call [1] of the same compound?
A: The mutagenic call was “active; positive”.

Q: What about the mutagenic call [2] of the same compound?
A: The mutagenic call was “active; positive”.

Q: Which mutagenic call (Test System: Ames Salmonella typhimurium, Strain/Indicator: TA102, Metabolic Activation: None, Method: Preincubation) does the source give for O=C(O[C@H]1Cc2c(O)cc(O)cc2O[C@H]1c1ccc(O)c(O)c1)c1cc(O)c(O)c(O)c1 here?
A: Its mutagenic call is “inactive; negative”.

Q: What about the mutagenic call (Test System: Ames Salmonella typhimurium, Strain/Indicator: TA102, Metabolic Activation: Rat, Liver, S-9, Aroclor 1254 in 0.154 M KCl, Method: Preincubation) of the same compound?
A: Its mutagenic call is “inactive; negative”.

Q: What does the source list for CC(Oc1ccc(Oc2cnc3cc(Cl)ccc3n2)cc1)C(=O)O (centres undefined)?
A: mutagenic call (Test System: Mouse lymphoma, Strain/Indicator: L5178Y (tk+/tk-), Metabolic Activation: None, Method: Suspension/plate): active; positive; mutagenic call (Test System: Mouse lymphoma, Strain/Indicator: L5178Y (tk+/tk-), Metabolic Activation: Rat, Liver, S-9, Aroclor 1254, Method: Suspension/plate): active; positive

Q: What does the source list for Oc1cccc2c1ccc1c3c4c(cccc4cc12)C=C3?
A: mutagenic call [1]: inactive; negative; mutagenic call (Test System: AMES SALMONELLA TYPHIMURIUM, Strain/Indicator: TA98, Metabolic Activation: RAT, LIVER, S-9, AROCLOR 1254 (0, 0.4, 0.8, 1.15 OR 1.5 MG/PLATE), Method: STANDARD PLATE): active; positive

Q: CC(=O)Nc1ccc2c(c1)Cc1cc(NC(C)=O)ccc1-2 was tested. Which mutagenic call (Test System: AMES SALMONELLA TYPHIMURIUM, Strain/Indicator: TA1538, Metabolic Activation: RAT, LIVER, S-9, PHENOBARBITAL, Method: STANDARD PLATE) did it give?
A: Its mutagenic call is “active; positive”.

Q: With CC(=O)O as the compound, how does the mutagenic call (Test System: AMES SALMONELLA TYPHIMURIUM, Strain/Indicator: TA97, Metabolic Activation: HAMSTER, LIVER, S-9, AROCLOR 1254 (10%), Method: PREINCUBATION) read?
A: The mutagenic call was “inactive; negative”.

Q: And the mutagenic call (Test System: AMES SALMONELLA TYPHIMURIUM, Strain/Indicator: TA97, Metabolic Activation: HAMSTER, LIVER, S-9, AROCLOR 1254 (30%), Method: PREINCUBATION)?
A: Its mutagenic call is “inactive; negative”.

Q: What about the mutagenic call (Test System: AMES SALMONELLA TYPHIMURIUM, Strain/Indicator: TA97, Metabolic Activation: NONE, Method: PREINCUBATION) of the same compound?
A: Its mutagenic call is “inactive; negative”.

Q: And the mutagenic call (Test System: AMES SALMONELLA TYPHIMURIUM, Strain/Indicator: TA97, Metabolic Activation: RAT, LIVER, S-9, AROCLOR 1254 (10%), Method: PREINCUBATION)?
A: The mutagenic call was “inactive; negative”.

Q: What about the mutagenic call (Test System: AMES SALMONELLA TYPHIMURIUM, Strain/Indicator: TA97, Metabolic Activation: RAT, LIVER, S-9, AROCLOR 1254 (30%), Method: PREINCUBATION) of the same compound?
A: The mutagenic call was “inactive; negative”.

Q: And the mutagenic call (Test System: AMES SALMONELLA TYPHIMURIUM, Strain/Indicator: TA97, Metabolic Activation: RAT, LIVER, S-9, AROCLOR 1254, Method: PREINCUBATION)?
A: Its mutagenic call is “inactive; negative”.

Q: What about the mutagenic call (Test System: AMES SALMONELLA TYPHIMURIUM, Strain/Indicator: TA98, Metabolic Activation: HAMSTER, LIVER, S-9, AROCLOR 1254 (10%), Method: PREINCUBATION) of the same compound?
A: Its mutagenic call is “inactive; negative”.

Q: And the mutagenic call (Test System: AMES SALMONELLA TYPHIMURIUM, Strain/Indicator: TA98, Metabolic Activation: HAMSTER, LIVER, S-9, AROCLOR 1254 (30%), Method: PREINCUBATION)?
A: Its mutagenic call is “inactive; negative”.

Q: And the mutagenic call [3]?
A: Its mutagenic call is “inactive; negative”.

Q: What about the mutagenic call (Test System: AMES SALMONELLA TYPHIMURIUM, Strain/Indicator: TA98, Metabolic Activation: RAT, LIVER, S-9, AROCLOR 1254 (10%), Method: PREINCUBATION) of the same compound?
A: The mutagenic call was “inactive; negative”.

Q: And the mutagenic call (Test System: AMES SALMONELLA TYPHIMURIUM, Strain/Indicator: TA98, Metabolic Activation: RAT, LIVER, S-9, AROCLOR 1254 (30%), Method: PREINCUBATION)?
A: The mutagenic call was “inactive; negative”.

Q: And the mutagenic call (Test System: AMES SALMONELLA TYPHIMURIUM, Strain/Indicator: TA100, Metabolic Activation: HAMSTER, LIVER, S-9, AROCLOR 1254 (10%), Method: PREINCUBATION)?
A: Its mutagenic call is “inactive; negative”.

Q: And the mutagenic call (Test System: AMES SALMONELLA TYPHIMURIUM, Strain/Indicator: TA100, Metabolic Activation: HAMSTER, LIVER, S-9, AROCLOR 1254 (30%), Method: PREINCUBATION)?
A: The mutagenic call was “inactive; negative”.

Q: And the mutagenic call [4]?
A: The mutagenic call was “inactive; negative”.

Q: And the mutagenic call (Test System: AMES SALMONELLA TYPHIMURIUM, Strain/Indicator: TA100, Metabolic Activation: RAT, LIVER, S-9, AROCLOR 1254 (10%), Method: PREINCUBATION)?
A: Its mutagenic call is “inactive; negative”.

Q: What about the mutagenic call (Test System: AMES SALMONELLA TYPHIMURIUM, Strain/Indicator: TA100, Metabolic Activation: RAT, LIVER, S-9, AROCLOR 1254 (30%), Method: PREINCUBATION) of the same compound?
A: Its mutagenic call is “inactive; negative”.

Q: What about the mutagenic call (Test System: AMES SALMONELLA TYPHIMURIUM, Strain/Indicator: TA102, Metabolic Activation: NONE, Method: PREINCUBATION) of the same compound?
A: The mutagenic call was “inactive; negative”.

Q: What about the mutagenic call (Test System: AMES SALMONELLA TYPHIMURIUM, Strain/Indicator: TA102, Metabolic Activation: RAT, LIVER, S-9, AROCLOR 1254, Method: PREINCUBATION) of the same compound?
A: The mutagenic call was “inactive; negative”.

Q: And the mutagenic call (Test System: AMES SALMONELLA TYPHIMURIUM, Strain/Indicator: TA1535, Metabolic Activation: HAMSTER, LIVER, S-9, AROCLOR 1254 (10%), Method: PREINCUBATION)?
A: Its mutagenic call is “inactive; negative”.

Q: What about the mutagenic call (Test System: AMES SALMONELLA TYPHIMURIUM, Strain/Indicator: TA1535, Metabolic Activation: HAMSTER, LIVER, S-9, AROCLOR 1254 (30%), Method: PREINCUBATION) of the same compound?
A: The mutagenic call was “inactive; negative”.

Q: What about the mutagenic call (Test System: AMES SALMONELLA TYPHIMURIUM, Strain/Indicator: TA1535, Metabolic Activation: NONE, Method: PREINCUBATION) of the same compound?
A: Its mutagenic call is “inactive; negative”.

Q: And the mutagenic call (Test System: AMES SALMONELLA TYPHIMURIUM, Strain/Indicator: TA1535, Metabolic Activation: RAT, LIVER, S-9, AROCLOR 1254 (10%), Method: PREINCUBATION)?
A: The mutagenic call was “inactive; negative”.

Q: What about the mutagenic call (Test System: AMES SALMONELLA TYPHIMURIUM, Strain/Indicator: TA1535, Metabolic Activation: RAT, LIVER, S-9, AROCLOR 1254 (30%), Method: PREINCUBATION) of the same compound?
A: The mutagenic call was “inactive; negative”.

Q: Nc1cccc2c(Cl)nsc12 was tested. Which mutagenic call (Test System: AMES SALMONELLA TYPHIMURIUM, Strain/Indicator: TA100, Metabolic Activation: S-9, Method: STANDARD PLATE) did it give?
A: Its mutagenic call is “active; positive”.

Q: With COC(=O)[C@@H](C)Cl as the compound, how does the mutagenic call [4] read?
A: The mutagenic call was “active; positive”.

Q: What about the mutagenic call (Test System: AMES SALMONELLA TYPHIMURIUM, Strain/Indicator: TA100, Metabolic Activation: RAT, LIVER, S-9, PCB, Method: PREINCUBATION) of the same compound?
A: Its mutagenic call is “active; positive”.

Q: With Cn1c([N+](=O)[O-])cnc1C(O)c1cc(C(C)(C)C)cc(C(C)(C)C)c1O (centres undefined) as the compound, how does the mutagenic call [1] read?
A: The mutagenic call was “inactive; negative”.

Q: What about the mutagenic call [2] of the same compound?
A: The mutagenic call was “inactive; negative”.

Q: What about the mutagenic call [5] of the same compound?
A: Its mutagenic call is “inactive; negative”.

Q: And the mutagenic call [6]?
A: The mutagenic call was “inactive; negative”.

Q: What about the mutagenic call (Test System: AMES SALMONELLA TYPHIMURIUM, Strain/Indicator: TA1535, Metabolic Activation: NONE, Method: STANDARD PLATE) of the same compound?
A: The mutagenic call was “inactive; negative”.

Q: What about the mutagenic call (Test System: AMES SALMONELLA TYPHIMURIUM, Strain/Indicator: TA1535, Metabolic Activation: RAT, LIVER, S-9, AROCLOR 1254, Method: STANDARD PLATE) of the same compound?
A: Its mutagenic call is “inactive; negative”.

Q: And the mutagenic call (Test System: AMES SALMONELLA TYPHIMURIUM, Strain/Indicator: TA1537, Metabolic Activation: NONE, Method: STANDARD PLATE)?
A: Its mutagenic call is “inactive; negative”.

Q: What about the mutagenic call (Test System: AMES SALMONELLA TYPHIMURIUM, Strain/Indicator: TA1537, Metabolic Activation: RAT, LIVER, S-9, AROCLOR 1254, Method: STANDARD PLATE) of the same compound?
A: The mutagenic call was “inactive; negative”.

Q: And the mutagenic call (Test System: AMES SALMONELLA TYPHIMURIUM, Strain/Indicator: TA1538, Metabolic Activation: NONE, Method: STANDARD PLATE)?
A: Its mutagenic call is “inactive; negative”.

Q: What about the mutagenic call (Test System: AMES SALMONELLA TYPHIMURIUM, Strain/Indicator: TA1538, Metabolic Activation: RAT, LIVER, S-9, AROCLOR 1254, Method: STANDARD PLATE) of the same compound?
A: The mutagenic call was “inactive; negative”.

Q: For COC(=O)/C(C#N)=C/c1ccc(Br)o1, which mutagenic call [3] is on record?
A: The mutagenic call was “inactive; negative”.

Q: For C=Cc1ccc([N+](=O)[O-])cc1, which mutagenic call [1] is on record?
A: The mutagenic call was “active; positive”.

Q: What about the mutagenic call [2] of the same compound?
A: Its mutagenic call is “active; positive”.

Q: What about the mutagenic call [5] of the same compound?
A: Its mutagenic call is “active; positive”.

Q: What about the mutagenic call [6] of the same compound?
A: Its mutagenic call is “active; positive”.
